In paper PMC9823006 (Nature Communications, 2023):
Several values for one entry are separate records, joined by “and”; a condition that tells them apart may be missing. Equal values may be shown once.

Assays:
KalbSec14 [1] = biological target: T1, KalbSec14 (Rattus norvegicus, UniProt P97924, N62Y/T46S); assay: Isothermal titration calorimetry (preliminary); assay type: binding; details: preliminary ITC, data not shown
T1 construct: His6 (TEV-cleavable) (N, cleaved yes); made in house; host or cells: E. coli BL21(DE3)

Kal^Sec14 = biological target: T2, Kal^Sec14 (Rattus norvegicus, UniProt P97924, N62Y/T46S); assay: Liposome flotation binding assay (Accudenz gradient, Western blot); details: Suppl. Fig. 9b,c; for Densitometry values for the Western blots, Fraction 1, Ave. / Densitometry values for the Western blots, Fraction 2, Ave. / Densitometry values for the Western blots, Fraction 3, Ave. / Densitometry values for the Western blots, Fraction 4, Ave.: average, biological replication ≥ 3; for Densitometry values for the Western blots, Fraction 1 / Densitometry values for the Western blots, Fraction 2 / Densitometry values for the Western blots, Fraction 3 / Densitometry values for the Western blots, Fraction 4: individual experiments (Exp. 1-4)
T2 construct: 19.4 kDa); His6 (TEV-cleavable) (N, cleaved yes); made in house; host or cells: E. coli BL21(DE3)
Experimental: (§1) The synthetic and natural lipids used in flotation assays were purchased from Avanti Polar Lipids, Inc. (Supplementary Table 2). All powdered lipids were dissolved in chloroform per the manufacturer’s instructions. Liposomes were prepared as previously described. […] Individual test lipids were dried together with the control lipid mix under a nitrogen stream and lyophilized overnight. Each dried lipid film was reconstituted to a final concentration of 1 mM in HN buffer containing 20 mM HEPES (pH 7.4) and 150 mM NaCl. Each final lipid mixtures consisted of 52% DOPC, 20% DOPE, 5% DOPS, 15% cholesterol and 8% tested lipid; inclusion of a trace amount of fluorescent lipid (Liss Rhod PE) allowed for localization of liposomes following gradient fractionation (see below). Each lipid mixture underwent five freeze-thaw cycles separated by vigorous vortexing each time it was thawed. Using a mini-extruder, unilamellar liposomes were prepared by passing each lipid mixture 21 times through a polycarbonate membrane of 100-nm pore size. Hydrated lipid mixtures were stored at −20 °C for up to 1 month; liposomes were freshly prepared for each experiment.
(§2) Flotation assays were conducted following the protocol previously described. Accudenz (Accurate Chemical and Scientific Corp., Westbury, NY) solutions (80 and 20% weight/vol) were prepared in HN buffer. To remove any particulate material, the protein to be tested was first centrifuged at 436,000 g at 4 °C for 15 min in a TL-100 ultracentrifuge using a Beckman TLA100.2 fixed angle rotor. Freshly prepared unilamellar liposomes (50 μl) were combined with 0.2 μg of the centrifuged protein and incubated at room temperature for 30 min. The entire liposome/protein mixture was then combined with 50 μl of 80% Accudenz at the bottom of an ultracentrifuge tube and carefully mixed to completion by pipetting. The resulting mixture was overlayered with […] of 20% Accudenz and then with 50 μl of HN buffer. Samples were centrifuged at 259,000 g at 4 °C for 30 min in the same ultracentrifuge using a Beckman TLS55 swinging bucket rotor. Gradients were then divided into four 100-μl fractions, which were carefully collected from the bottom of the tube using gel loading micropipette tips. Each fraction was analyzed for liposome and protein content using spectrophotometry (546-nm excitation/571-nm emission) and Western blot, respectively. Only those assays with at least 90% of the Liss Rhod PE marker recovered in the top fraction (fraction 1) were used for Western bloting analysis.
For Western bloting analysis, equal aliquots of each gradient fraction were denatured in 1× Laemmli sample buffer, fractionated on 15% acrylamide gels, and transferred to PVDF membranes. The protein content was detected using a custom-made rabbit antibody to the Sec14 domain of Kalirin (CT302[69], 1:3000) and an HRP-tagged goat anti-rabbit IgG (H + L) secondary antibody (catalog # 31460, 1:6000; ThermoFisher Scientific). SuperSignal West chemiluminescent substrate (Thermo Scientific) and a Syngene PXi digital imaging system (Synoptics Group) were used to visualize blots, with exposures adjusted to be in the linear range. After background subtraction, bands were quantified using the GeneSys software provided with the imaging system, and data were represented as a proportion of total protein recovered. Uncropped blots, quantification of each data point and exact P-values are provided in the Source Data file. […]
a. Representative Western blots from flotation assays with Kal Sec14 alone (Control), and Kal Sec14 with the control lipid mix (Lipo) or with the lipid mix containing the indicated additional lipid. After binding and separation of liposome bound Kal Sec14 from unbound Kal Sec14 on Accudenz gradients, the protein content of four gradient fractions was dete rmined by immunoblot; liposomes were recovered from the top fraction (fraction 1). Source data are […]

KalbSec14 [2] = biological target: T1, KalbSec14; assay: as above; details: for binding of Kal^bSec14 to liposomes containing the lipid: Golgi-mixture liposomes with 8% test lipid, result in words; for Fraction 1 protein content (top fraction, liposome-bound), densitometry, Ave. / Fraction 2 protein content, densitometry, Ave. / Fraction 3 protein content, densitometry, Ave. / Fraction 4 protein content (bottom fraction, unbound), densitometry, Ave.: mean of independent experiments; for Fraction 1 protein content (top fraction, liposome-bound), densitometry: normalized to total protein recovered from each gradient
Experimental: Unilamellar liposomes formed by mixing synthetic dioleoyl phospholipids and cholesterol in proportions mimicking the membranes of the trans-Golgi network (Golgi-mixture) were incubated with Kal^bSec14. An Accudenz gradient was used to separate liposome-bound proteins, which were recovered from the top of the gradient (fraction 1), from unbound proteins, which remained at the bottom (fraction 4). Protein levels in each fraction were analyzed by Western blotting with an antibody to the Sec14 domain of Kalirin.
as §1, §2
For Western bloting analysis, equal aliquots of each gradient fraction were denatured in 1× Laemmli sample buffer, fractionated on 15% acrylamide gels, and transferred to PVDF membranes. The protein content was detected using a custom-made rabbit antibody to the Sec14 domain of Kalirin (CT302[69], 1:3000) and an HRP-tagged goat anti-rabbit IgG (H + L) secondary antibody (catalog # 31460, 1:6000; ThermoFisher Scientific). SuperSignal West chemiluminescent substrate (Thermo Scientific) and a Syngene PXi digital imaging system (Synoptics Group) were used to visualize blots, with exposures adjusted to be in the linear range.

[3] = normalized to total protein recovered, test lipid 8% of liposome lipid
[4] = single experiments, normalized to total protein recovered, test lipid 8% of liposome lipid
[5] = single experiments, test lipid 8% of liposome lipid

Row | Structure (SMILES) | ITC signal (KalbSec14 [1]) | Densitometry values for the Western blots, Fraction 1, Ave. (Kal^Sec14) | Densitometry values for the Western blots, Fraction 2, Ave. (Kal^Sec14) | Densitometry values for the Western blots, Fraction 3, Ave. (Kal^Sec14) | Densitometry values for the Western blots, Fraction 4, Ave. (Kal^Sec14) | Densitometry values for the Western blots, Fraction 1 (Kal^Sec14) | Densitometry values for the Western blots, Fraction 2 (Kal^Sec14) | Densitometry values for the Western blots, Fraction 3 (Kal^Sec14) | Densitometry values for the Western blots, Fraction 4 (Kal^Sec14) | binding of Kal^bSec14 to liposomes containing the lipid (KalbSec14 [2]) | Fraction 1 protein content (top fraction, liposome-bound), densitometry, Ave. (KalbSec14 [2]; [3]) | Fraction 2 protein content, densitometry, Ave. (KalbSec14 [2]; [3]) | Fraction 3 protein content, densitometry, Ave. (KalbSec14 [2]; [3]) | Fraction 4 protein content (bottom fraction, unbound), densitometry, Ave. (KalbSec14 [2]; [3]) | Fraction 2 protein content, densitometry (KalbSec14 [2]; [4]) | Fraction 3 protein content, densitometry (KalbSec14 [2]; [4]) | Fraction 4 protein content (bottom fraction, unbound), densitometry (KalbSec14 [2]; [4]) | Fraction 1 protein content (top fraction, liposome-bound), densitometry (KalbSec14 [2]; [5])
1 | CCCCCCCCCCOP(=O)([O-])OCC[N+](C)(C)C [FC10, decylphosphocholine] | no ITC signal was observed |  |  |  |  |  |  |  |  |  |  |  |  |  |  |  |  | 
2 | CCCCCCCCCCCCCC(=O)OC[C@@H](O)COP(=O)(O)OCC(O)CO (mixture of isomers) [LPG14:0, 1-myristoyl-2-hydroxy-sn-glycero-3-phospho-(1'-rac-glycerol)] |  | 0.05 | 0.0118 | 0.0754 | 0.86 | 0.0538 and 0.045 and 0.06 | 0.00506 and 0.000399 and 0.03 | 0.0633 and 0.055 and 0.11 | 0.88 and 0.90 and 0.80 | fail to interact | 0.05 | 0.00765 | 0.0849 | 0.86 | 0.00729 and 0.00538 and 0.01 | 0.07 and 0.09 | 0.89 and 0.86 and 0.83 | 
3 | CCCCCCCCCCCCC(=O)OC[C@@H](O)COP(=O)(O)OC[C@H](N)C(=O)O [LPS13:0, 1-tridecanoyl-sn-glycero-3-phospho-L-serine] |  | 0.05 | 0.00866 | 0.09 | 0.86 | 0.07 and 0.05 and 0.025 and 0.0554 | 0.00695 and 0.01 and 0.00643 and 0.0108 | 0.07 and 0.05 and 0.16 | 0.86 and 0.89 and 0.90 and 0.78 | fail to interact | 0.03 | 0.0069 | 0.09 | 0.88 |  |  | 0.88 and 0.93 and 0.85 and 0.84 | 
4 | CCCCCCCCCCCCC(=O)OC[C@@H](O)COP(=O)(O)OC1C(O)C(O)C(O)C(O)C1O (some centres unmarked) [LPI13:0, 1-tridecanoyl-2-hydroxy-sn-glycero-3-phospho-(1'-myo-inositol)] |  | 0.0225 | 0.0117 | 0.17 | 0.80 | 0.0325 and 0.0143 and 0.02 | 0.00684 and 0.00931 and 0.019 | 0.10 and 0.16 and 0.24 | 0.86 and 0.82 and 0.72 | fail to interact | 0.028 | 0.00535 | 0.18 | 0.79 |  |  | 0.70 and 0.76 and 0.89 | 0.0252 and 0.03
5 | CCCCCCCCCCCCCC(=O)OC[C@H](COP(=O)([O-])OCC[N+](C)(C)C)OC(=O)CCCCCCCCCCCCC [DMPC, 1,2-dimyristoyl-sn-glycero-3-phosphocholine] |  | 0.03 | 0.01 | 0.11 | 0.85 | 0.0333 and 0.0235 and 0.03 | 0.00764 and 0.00497 and 0.0174 | 0.08 and 0.10 and 0.15 | 0.87 and 0.81 | precludes binding | 0.0259 | 0.0121 | 0.11 | 0.85 |  | 0.10 and 0.15 and 0.0759 | 0.86 and 0.83 and 0.87 | 0.03 and 0.0163 and 0.0322
